Results reported in US6753310B1, “Neovascular-specific peptides” (Otsuka Pharmaceutical Co., Ltd., priority 1998, dated 2004).

System: Meth A sarcoma
Experiment: Antitumor effect of adriamycin-including peptide-modified liposomes, tail vein administration
Type: in vivo, BALB/c mice
Settings: FIG. 15; after three tail vein administrations on days 6, 9 and 12
Method: Solid tumor-bearing mice were prepared by subcutaneously administering Meth A sarcoma cells (1×10^6 cells/mouse) into the left flank of five-week-old BALB/c male mice (Japan SLC). The day of implantation was taken as day 1 and, on days 6, 9 and 12, the 0.3 M glucose solution (solvent) as a control, adriamycin (ADR)-including control liposomes (liposomes including the anticancer agent but free of any angiogenesis-specific peptide of the invention), a free ADR solution prepared by dissolving the anticancer agent ADR in a concentration of 15 mg/kg (mouse) in 0.3 M glucose, and the ADR-including, angiogenesis-specific peptide-modified liposomes of the invention as prepared above in (1) were respectively administered into the tail vein. In the test, 5 tumor-bearing mice were used in each group.
The antitumor effect of each agent administered was evaluated by examining, from 5 days after tumor implantation, the tumor volume as an indicator of tumor growth and the mouse body weight change as well as the survival period (days) as an indicator of side effect, in a similar manner as in Example 4 (2).
In the figure, the ordinate denotes the tumor volume and the ascissa denotes the number of days after tumor implantation. […]

COc1cccc2c1C(=O)c1c(O)c3c(c(O)c1C2=O)C[C@@](O)(C(=O)CO)C[C@@H]3O[C@H]1C[C@H](N)[C@H](O)[C@H](C)O1 [free ADR solution, adriamycin]
death of mice: all mice died
